This note sets out measurements from ChEMBL document CHEMBL4382249, “1-Arylsulfonyl indoline-benzamides as a new antitubulin agents, with inhibition of histone deacetylase” (Eur J Med Chem, 2019).

Data set [1] in a line: Toxicity in nude Balb/c mouse xenografted with human A549 cells assessed as change in body weight at 50 mg/kg, ip daily measured up to 18 days. It counts as organism-based. Conditions: in vivo, 432 h.
Data set [2] has as its target T1, Protein deacetylase HDAC6 (Homo sapiens) (UniProt Q9UBN7).
T1 sequence (whole entry): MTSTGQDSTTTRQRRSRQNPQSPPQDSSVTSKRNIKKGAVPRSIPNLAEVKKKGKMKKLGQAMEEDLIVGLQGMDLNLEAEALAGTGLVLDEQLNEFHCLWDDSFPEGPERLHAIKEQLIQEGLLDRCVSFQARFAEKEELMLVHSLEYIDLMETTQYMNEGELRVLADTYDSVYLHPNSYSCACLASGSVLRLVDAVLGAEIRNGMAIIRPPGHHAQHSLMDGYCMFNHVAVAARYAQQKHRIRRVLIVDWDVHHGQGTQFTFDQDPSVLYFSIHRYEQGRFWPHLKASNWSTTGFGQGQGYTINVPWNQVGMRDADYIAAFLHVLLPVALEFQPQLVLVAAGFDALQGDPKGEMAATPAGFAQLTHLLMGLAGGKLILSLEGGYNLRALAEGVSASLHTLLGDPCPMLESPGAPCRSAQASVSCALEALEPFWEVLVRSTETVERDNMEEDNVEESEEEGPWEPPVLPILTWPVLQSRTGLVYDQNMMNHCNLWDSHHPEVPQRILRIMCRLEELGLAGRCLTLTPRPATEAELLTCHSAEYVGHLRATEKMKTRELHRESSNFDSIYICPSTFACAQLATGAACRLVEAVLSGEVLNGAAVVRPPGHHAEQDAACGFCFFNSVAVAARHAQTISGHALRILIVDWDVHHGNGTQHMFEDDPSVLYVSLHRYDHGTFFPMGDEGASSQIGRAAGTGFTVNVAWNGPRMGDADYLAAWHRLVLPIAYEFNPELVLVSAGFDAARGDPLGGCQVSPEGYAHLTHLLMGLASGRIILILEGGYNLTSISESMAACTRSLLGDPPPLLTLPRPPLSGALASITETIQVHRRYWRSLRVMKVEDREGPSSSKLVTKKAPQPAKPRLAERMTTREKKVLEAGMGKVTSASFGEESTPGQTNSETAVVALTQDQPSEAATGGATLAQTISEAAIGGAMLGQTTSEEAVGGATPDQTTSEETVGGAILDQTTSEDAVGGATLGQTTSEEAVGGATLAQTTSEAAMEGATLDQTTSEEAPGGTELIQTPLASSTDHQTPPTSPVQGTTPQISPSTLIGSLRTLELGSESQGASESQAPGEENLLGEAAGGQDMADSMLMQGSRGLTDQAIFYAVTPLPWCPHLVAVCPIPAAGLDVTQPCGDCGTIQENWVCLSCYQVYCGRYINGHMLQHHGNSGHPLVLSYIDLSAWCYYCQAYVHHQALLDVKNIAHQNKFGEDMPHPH
Briefly: Inhibition of human HDAC6 in human A549 cells assessed as increase in acetylated alpha-tubulin level at 0.6 to […] after 6 hrs by Western blot analysis. It counts as cell-based.

The test system of data set [3] is A549. Briefly: Growth inhibition of human A549 cells after 48 hrs by SRB assay. The format is functional, cell-based. The settings on record: A549, 48 h.
The test system of data set [4] is A549. Briefly: Antitumor activity against human A549 cells xenografted in Balb/c nude mouse assessed as tumor growth inhibition at 50 mg/kg, ip daily measured up to 18 days relative to control. It counts as functional. The settings on record: 432 h, read-out: TGI.
The test system of a further data set is MKN-45. In words: Growth inhibition of human MKN45 cells after 48 hrs by SRB assay. It counts as functional, cell-based. The settings on record: MKN-45, 48 h.
The target in the next data set is Histone deacetylase 9 (Homo sapiens, UniProt Q9UKV0). Briefly: Inhibition of human HDAC9 using fluorogenic p53 (379-382) peptide RHKK(Ac) as substrate by fluorescence assay.
Histone deacetylase 9, sequence (Q9UKV0 whole entry): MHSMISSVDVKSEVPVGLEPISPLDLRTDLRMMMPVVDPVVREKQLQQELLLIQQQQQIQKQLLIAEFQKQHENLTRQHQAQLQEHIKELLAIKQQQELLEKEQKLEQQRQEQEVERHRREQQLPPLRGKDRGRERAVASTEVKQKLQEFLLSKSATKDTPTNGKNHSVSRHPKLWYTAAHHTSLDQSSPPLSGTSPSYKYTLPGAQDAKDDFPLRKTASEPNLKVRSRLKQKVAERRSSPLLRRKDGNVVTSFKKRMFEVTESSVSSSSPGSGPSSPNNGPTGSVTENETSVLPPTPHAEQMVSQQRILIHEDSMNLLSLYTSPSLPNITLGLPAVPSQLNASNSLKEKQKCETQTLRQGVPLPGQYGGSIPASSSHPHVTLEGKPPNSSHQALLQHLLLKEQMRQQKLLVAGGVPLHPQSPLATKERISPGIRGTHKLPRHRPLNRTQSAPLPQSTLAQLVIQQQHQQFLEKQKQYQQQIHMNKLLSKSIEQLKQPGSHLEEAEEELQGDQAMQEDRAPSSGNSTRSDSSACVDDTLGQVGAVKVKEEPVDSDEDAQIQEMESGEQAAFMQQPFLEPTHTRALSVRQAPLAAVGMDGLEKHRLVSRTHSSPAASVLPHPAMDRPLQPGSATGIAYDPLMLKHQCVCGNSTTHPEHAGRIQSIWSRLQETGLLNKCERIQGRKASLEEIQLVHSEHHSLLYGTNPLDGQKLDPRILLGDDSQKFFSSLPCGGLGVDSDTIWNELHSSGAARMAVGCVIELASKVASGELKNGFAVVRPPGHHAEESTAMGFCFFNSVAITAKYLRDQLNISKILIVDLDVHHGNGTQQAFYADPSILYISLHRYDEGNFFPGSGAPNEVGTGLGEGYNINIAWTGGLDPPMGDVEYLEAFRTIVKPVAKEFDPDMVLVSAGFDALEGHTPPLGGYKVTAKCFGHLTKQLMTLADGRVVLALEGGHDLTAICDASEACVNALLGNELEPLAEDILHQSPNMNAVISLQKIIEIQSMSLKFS
The test system of data set [5] is BJAB. Briefly: Growth inhibition of human BJAB cells assessed as cell viability at 20 nM after 48 hrs by MTT assay (reference value: 100%).
The subject of data set [6] is BJAB. In words: Antitumor activity against human BJAB cells xenografted in NOD/SCID mouse assessed as tumor growth inhibition at 50 mg/kg, iv daily for 5 days/week measured on day 25 post first dose. The format is functional, organism-based.
In data set [7] the test system is BJAB. Briefly: Growth inhibition of human BJAB cells assessed as cell viability at 5 nM after 48 hrs by MTT assay (reference value: 100%).
The next data set concerns the target Tubulin (Bos taurus) (UniProt Q6B856+Q862L2+Q862F3). The settings on record: at 5 µM.
A short description of data set [8]: Growth inhibition of human KB-S15 cells after 48 hrs by SRB assay. It counts as functional. Conditions: KB-S15, 48 h.
The next data set deals with Histone deacetylase 3 (Homo sapiens, UniProt O15379).
Histone deacetylase 3, sequence (O15379 whole entry): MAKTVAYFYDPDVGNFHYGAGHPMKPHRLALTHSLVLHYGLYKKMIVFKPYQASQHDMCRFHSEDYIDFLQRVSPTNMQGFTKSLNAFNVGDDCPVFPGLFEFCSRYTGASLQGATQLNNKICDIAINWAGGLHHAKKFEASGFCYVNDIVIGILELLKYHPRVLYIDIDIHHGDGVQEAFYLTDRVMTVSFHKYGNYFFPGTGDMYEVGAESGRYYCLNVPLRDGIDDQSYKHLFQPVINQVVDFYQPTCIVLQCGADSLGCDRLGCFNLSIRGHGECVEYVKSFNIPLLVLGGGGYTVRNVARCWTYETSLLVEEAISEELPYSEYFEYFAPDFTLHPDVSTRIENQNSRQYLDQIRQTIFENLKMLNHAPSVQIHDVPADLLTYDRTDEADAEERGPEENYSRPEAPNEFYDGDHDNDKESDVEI
Data set [9] deals with T2, Protein deacetylase HDAC6 (Homo sapiens, UniProt Q9UBN7).
T2 sequence (Q9UBN7 whole entry): T1 sequence (whole entry)
Briefly: Inhibition of human HDAC6 using RHKKAc as substrate by fluorescence assay.

Molecules are shown by their SMILES. The source made the active and inactive calls. The rule behind the calls is not given here.

As for `COc1ccc(S(=O)(=O)N2CCc3cccc(NCc4ccc(C(=O)Nc5ccccc5N)cc4)c32)cc1`, in data set [1], the Activity entry was “Non-Toxic”. Further, in [2], the inhibition entry is “Active”. Moreover, the IC50 in the data set with A549 [3] is 79 nM; in the data set with MKN-45 it was 63 nM; against Histone deacetylase 9, “Not Active”; in data set [8] it was 43.9 nM; on Histone deacetylase 3 it was “Not Active”; in [9], 314 nM. For the same compound, the inhibition in vivo at 50 mg/kg in the data set on A549 [4] came to 62.9%. The viability at 0.02 µM in the data set with BJAB [5] was found to be 70%. For the same compound, in the data set on BJAB [6], the TGI result was “Active”. Further, the viability at 0.005 µM with BJAB [7] was 71%. In addition, the inhibition against Tubulin (Bos taurus) is 85.2%.
